The target in one assay is PIM3 (Homo sapiens, UniProt Q86V86). Description: KinaseGlo Pim3 ATP depletion assay. It is filed as biochemical. An outline of the steps: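 Residual ATP was detected by luciferase luminescence once about half had been consumed. The reaction contained 5 nM enzyme, 100 μM BAD peptide (RSRHSSYPAGT) and 40 μM ATP in 50 mM HEPES pH 7.5, 5 mM MgCl2, 1 mM DTT and 0.05% BSA with 2.5% DMSO. Compound and enzyme/peptide were premixed 15 min before ATP.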

A further assay addresses GSK3β (Homo sapiens, UniProt P49841). Description: GSK3β ATP depletion assay. The assay is classed as biochemical. To be noted: read-out: GSK3b IC50. An outline of the steps: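 Kinase activity is read as ATP consumption: luciferase luminescence reports the ATP remaining once roughly half of the 2 μM ATP is used. Reaction mix: 5 nM GSK3β, 10 μM b-CREB peptide, 50 mM Tris pH 7.5, 15 mM MgCl2, 1 mM DTT, 0.1% BSA, 2.5% DMSO. Enzyme and peptide are preincubated 15 min before ATP is added.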

Assay [1] has as its system KMS11 (human myeloma cell line). The assay can be described thus: Cell proliferation assay (CellTiter-Glo), KMS11. It is filed as cell-based. To be noted: Homo sapiens, KMS-11; KMS11-Luc cells. An outline of the steps: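 EC50 derived from CellTiter-Glo luminescence after 3-day exposure at 37° C. Compound was diluted to 2× in medium and added to an equal volume of cells. KMS11 myeloma cells were plated on assay day at 2000/well in IMDM with 10% FBS and sodium pyruvate.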
Background: ATP-based viability assays read luminescence as a measure of living cells.

The target of a further assay is PIM1 (Homo sapiens, UniProt P11309). Description: KinaseGlo Pim1 ATP depletion assay. The assay is classed as biochemical. An outline of the steps: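 IC50 is derived from residual ATP measured by KinaseGlo Plus luminescence once about half the ATP was consumed. Final conditions were 20 μM ATP, 40 μM BAD peptide and 2.5 nM kinase in HEPES pH 7.5 buffer with MgCl2, DTT and BSA, plus 2.5% DMSO. Compound and enzyme were premixed 15 min before ATP addition.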
Sequence of PIM1 (P11309 whole entry): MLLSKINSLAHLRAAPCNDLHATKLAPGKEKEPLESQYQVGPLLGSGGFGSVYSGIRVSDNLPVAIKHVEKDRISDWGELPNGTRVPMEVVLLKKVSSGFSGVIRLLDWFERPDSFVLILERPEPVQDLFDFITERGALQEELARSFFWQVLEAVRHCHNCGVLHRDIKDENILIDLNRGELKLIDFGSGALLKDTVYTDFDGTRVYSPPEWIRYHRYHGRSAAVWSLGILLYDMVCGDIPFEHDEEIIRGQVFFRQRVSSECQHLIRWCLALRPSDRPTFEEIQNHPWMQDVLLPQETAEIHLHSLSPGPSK
In general terms: Kinase-Glo measures the ATP left after a reaction by luminescence.

The next assay has as its target PIM2 (Homo sapiens, UniProt Q9P1W9). The assay can be described thus: KinaseGlo Pim2 ATP depletion assay. The assay is classed as biochemical. An outline of the steps: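 Compound sat 15 min with enzyme and BAD peptide before ATP was added; final levels 5 nM PIM2, 10 μM peptide, 4 μM ATP, 2.5% DMSO, pH 7.5 HEPES buffer with MgCl2, DTT, BSA. Stopped near 50% ATP consumption; remaining ATP measured by luciferase luminescence.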

Sequence of GSK3β (P49841 whole entry, species assumed): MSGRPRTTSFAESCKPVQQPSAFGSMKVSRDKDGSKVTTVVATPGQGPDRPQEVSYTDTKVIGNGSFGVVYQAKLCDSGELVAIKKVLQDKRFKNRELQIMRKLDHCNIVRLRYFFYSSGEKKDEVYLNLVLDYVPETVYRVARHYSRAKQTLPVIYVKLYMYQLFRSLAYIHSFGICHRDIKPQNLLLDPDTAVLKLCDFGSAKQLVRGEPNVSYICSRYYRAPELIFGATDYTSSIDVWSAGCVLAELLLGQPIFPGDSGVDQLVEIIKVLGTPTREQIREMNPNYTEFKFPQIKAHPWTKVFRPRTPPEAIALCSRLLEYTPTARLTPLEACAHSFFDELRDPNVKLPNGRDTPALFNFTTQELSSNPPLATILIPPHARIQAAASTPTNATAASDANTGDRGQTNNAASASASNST
Sequence of PIM2 (Q9P1W9 whole entry): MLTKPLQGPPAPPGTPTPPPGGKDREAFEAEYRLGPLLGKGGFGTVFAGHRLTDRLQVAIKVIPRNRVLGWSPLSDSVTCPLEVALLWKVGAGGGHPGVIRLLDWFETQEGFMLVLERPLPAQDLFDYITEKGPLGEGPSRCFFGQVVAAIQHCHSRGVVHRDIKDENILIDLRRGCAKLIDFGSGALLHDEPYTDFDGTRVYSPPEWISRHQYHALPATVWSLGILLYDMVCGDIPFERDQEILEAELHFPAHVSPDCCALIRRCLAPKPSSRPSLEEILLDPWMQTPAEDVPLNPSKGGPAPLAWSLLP

For orientation: IC50 means the concentration that inhibits the measured activity by half. For orientation: EC50 means the midpoint of the concentration-response curve. Read a high EC50 as weaker potency. `O=C(Nc1cnccc1[C@@H]1C[C@@H](O)[C@H](O)[C@@H](CO)O1)c1ccc(F)c(-c2c(F)cccc2F)n1` [Example 78, 6-(2,6-difluorophenyl)-N-(4-((2S,4R,5S,6R)-4,5-dihydroxy-6-(hydroxymethyl)tetrahydro-2H-pyran-2-yl)pyridin-3-yl)-5-fluoropicolinamide]: the IC50 against PIM3 turned out to be 151 nM; on GSK3β it was 5820 nM; on PIM1 it was 127 nM; against PIM2, 2520 nM. It took 1.5 µM to reach a half-maximal effect in assay [1] (EC50).
On the same counts, the results for `O=C(Nc1cnccc1[C@H]1C[C@@H](O)[C@@]2(O)CCC[C@H]2O1)c1c[nH]cc(-c2ccccc2)c1=O` [Example 181, N-(4-((2R,4R,4aS,7aR)-4,4a-dihydroxyoctahydrocyclopenta[b]pyran-2-yl)pyridin-3-yl)-4-oxo-5-phenyl-1,4-dihydropyridine-3-carboxamide] are 492 nM, 4210 nM, 825 nM, 9100 nM and above 10 µM.
On the same counts, the results for `N#C[C@H]1O[C@@H](c2ccncc2NC(=O)c2nc(-c3c(F)cccc3F)ncc2N)C[C@@H](O)[C@@H]1O` [Example 148, 5-amino-N-(4-((2R,4R,5S,6R)-6-cyano-4,5-dihydroxytetrahydro-2H-pyran-2-yl)pyridin-3-yl)-2-(2,6-difluorophenyl)pyrimidine-4-carboxamide] are 20.4 nM, 691 nM, 29.7 nM, 30.3 nM and above 10 µM.
On the same counts, the results for `N#C[C@H]1O[C@@H](c2ccncc2NC(=O)c2ccc(F)c(-c3c(F)cccc3F)n2)C[C@@H](O)[C@@H]1O` [Example 13, N-(4-((2R,4R,5S,6R)-6-cyano-4,5-dihydroxytetrahydro-2H-pyran-2-yl)pyridin-3-yl)-6-(2,6-difluorophenyl)-5-fluoropicolinamide] are 5 nM, 583 nM, 1 nM, 12 nM and 8.11 µM.
`Nc1cnc(-c2c(F)cccc2F)nc1C(=O)Nc1cnccc1[C@H]1C[C@@H](O)[C@H](O)[C@@H](CCl)O1` [Example 17, 5-amino-N-(4-((2R,4R,5S,6S)-6-(chloromethyl)-4,5-dihydroxytetrahydro-2H-pyran-2-yl)pyridin-3-yl)-2-(2,6-difluorophenyl)pyrimidine-4-carboxamide]: the IC50 stood at 4 nM against PIM3, 66 nM at GSK3β, 2 nM at PIM1 and 3 nM on PIM2. Further, the EC50 in assay [1] is 4.16 µM.
As to `O=C(Nc1cnccc1[C@@H]1C[C@H](O)[C@]2(O)CCC[C@@H]2O1)c1ccnn(-c2ccccc2F)c1=O` [Example 203, N-(4-((2S,4S,4aR,7aS)-4,4a-dihydroxyoctahydrocyclopenta[b]pyran-2-yl)pyridin-3-yl)-2-(2-fluorophenyl)-3-oxo-2,3-dihydropyridazine-4-carboxamide], the IC50 against PIM3 was 23800 nM; at GSK3β, 543 nM; against PIM1, 6610 nM; against PIM2, above 250000 nM. In assay [1], the EC50 is above 10 µM.
On the same counts, the results for `N#CC[C@H]1O[C@@H](c2ccncc2NC(=O)c2ccc(F)c(-c3c(F)cccc3F)n2)C[C@@H](O)[C@@H]1O` [Example 137, N-(4-((2R,4R,5S,6R)-6-(cyanomethyl)-4,5-dihydroxytetrahydro-2H-pyran-2-yl)pyridin-3-yl)-6-(2,6-difluorophenyl)-5-fluoropicolinamide] are 5 nM, 351 nM, 3 nM, 23 nM and above 10 µM.
On the same counts, the results for `CC[C@]1(O)[C@H](O)C[C@H](c2ccncc2NC(=O)c2ncccc2N)O[C@@H]1C` [Example 158, 3-amino-N-(4-((2R,4R,5S,6R)-5-ethyl-4,5-dihydroxy-6-methyltetrahydro-2H-pyran-2-yl)pyridin-3-yl)picolinamide] are 6.9 nM, 23.1 nM, 8.8 nM, 68.1 nM and above 10 µM.
For `CC[C@@H]1O[C@H](c2ccncc2NC(=O)c2nc(-c3c(F)cccc3F)ncc2N)C[C@H](O)[C@@]1(C)O` [Example 167, 5-amino-2-(2,6-difluorophenyl)-N-(4-((2S,4S,5R,6S)-6-ethyl-4,5-dihydroxy-5-methyltetrahydro-2H-pyran-2-yl)pyridin-3-yl)pyrimidine-4-carboxamide] the same measures were 86.7 nM, 3410 nM, 65.5 nM, 92 nM and above 10 µM.
For `CC[C@H]1O[C@@H](c2ccncc2NC(=O)c2ccc(F)c(-c3c(F)cccc3F)n2)C[C@@H](O)[C@@H]1O` [Example 75, 6-(2,6-difluorophenyl)-N-(4-((2R,4R,5S,6R)-6-ethyl-4,5-dihydroxytetrahydro-2H-pyran-2-yl)pyridin-3-yl)-5-fluoropicolinamide], the IC50 on PIM3 came out at 2 nM; on GSK3β, 228 nM; against PIM1, 1 nM; against PIM2 it was 4 nM. In addition, the EC50 in assay [1] came to 2.2 µM.
On to `CC[C@H]1O[C@@H](c2ccncc2NC(=O)c2nc(-c3c(F)cccc3F)ncc2N)C[C@@H](O)[C@]1(C)O` [Example 168, 5-amino-2-(2,6-difluorophenyl)-N-(4-((2R,4R,5S,6R)-6-ethyl-4,5-dihydroxy-5-methyltetrahydro-2H-pyran-2-yl)pyridin-3-yl)pyrimidine-4-carboxamide], for which the IC50 against PIM3 was 2.7 nM; on GSK3β, 1030 nM; at PIM1 it was 3 nM; at PIM2, 2.3 nM. Besides, the response in assay [1] was half-maximal at 5.9 µM (EC50).
For `O=C(Nc1cnccc1[C@@H]1C[C@H](O)CC2(CC2)O1)c1csc(-c2c(F)cccc2F)n1` [Example 62, 2-(2,6-difluorophenyl)-N-(4-((5S,7S)-7-hydroxy-4-oxaspiro[2.5]octan-5-yl)pyridin-3-yl)thiazole-4-carboxamide] the same measures were 15 nM, 27 nM, 2 nM, 321 nM and above 10 µM.
For `C[C@H]1OC(c2ccncc2NC(=O)c2nc(-c3c(F)cccc3F)ncc2N)=C[C@@H](O)[C@]1(C)O` [Example 11, 5-amino-2-(2,6-difluorophenyl)-N-(4-((2R,3S,4R)-3,4-dihydroxy-2,3-dimethyl-3,4-dihydro-2H-pyran-6-yl)pyridin-3-yl)pyrimidine-4-carboxamide] the same measures were 1.8 nM, 718 nM, 0.7 nM, 1.4 nM and 0.718 µM.
On the same counts, the results for `CC[C@H]1O[C@@H](c2ccncc2NC(=O)c2ccc(F)c(-c3c(F)cccc3F)n2)C[C@@H](O)[C@H]1C#N` [Example 200, N-(4-((2R,4R,5R,6R)-5-cyano-6-ethyl-4-hydroxytetrahydro-2H-pyran-2-yl)pyridin-3-yl)-6-(2,6-difluorophenyl)-5-fluoropicolinamide] are 33.9 nM, 1200 nM, 7.8 nM, 46.7 nM and above 10 µM.
For the compound `CC[C@]1(O)[C@H](O)C[C@H](c2ccncc2NC(=O)c2nc(-c3ccnnc3)ccc2N)O[C@@H]1C` [Example 160, 3-amino-N-(4-((2R,4R,5S,6R)-5-ethyl-4,5-dihydroxy-6-methyltetrahydro-2H-pyran-2-yl)pyridin-3-yl)-6-(pyridazin-4-yl)picolinamide], the IC50 at PIM3 stood at 260 nM; on GSK3β it was 67.4 nM; against PIM1 it was 166 nM; against PIM2, 1640 nM. The EC50 in assay [1] is above 10 µM.
For the compound `O=C(Nc1cnccc1C1OCCCO1)c1csc(-c2c(F)cccc2F)n1` [Example 117, N-(4-(1,3-dioxan-2-yl)pyridin-3-yl)-2-(2,6-difluorophenyl)thiazole-4-carboxamide], the IC50 against PIM3 is 40 nM; at GSK3β, 2730 nM; against PIM1, 8 nM; on PIM2, 2480 nM. The compound further had an EC50 in assay [1] of 9.5 µM.
For `O=C(Nc1cnccc1[C@H]1C[C@@H](O)[C@@]2(O)CCC[C@H]2O1)c1cccn(-c2ccccc2)c1=O` [Example 194, N-(4-((2R,4R,4aS,7aR)-4,4a-dihydroxyoctahydrocyclopenta[b]pyran-2-yl)pyridin-3-yl)-2-oxo-1-phenyl-1,2-dihydropyridine-3-carboxamide] the same measures were 2850 nM, 13300 nM, 2210 nM, above 25000 nM and above 10 µM.

Values taken from patent publication US20130109682A1, “CYCLIC ETHER COMPOUNDS USEFUL AS KINASE INHIBITORS” (NOVARTIS AG, priority 2010, published 2013).
